Source: US20140121240A1, “NOVEL PHARMACEUTICAL COMPOSITION” (MARUHO CO., LTD., priority 2011, published 2014)
Marks after values point to notes of the source that are not given here.

Key:
[1] = system: histamine-induced scratching behavior; experiment: Antipruritic activity in histamine-induced scratching model, dose response (Experiment 3 (1)); format: in vivo, mouse
Protocol: (1) [Antipruritic Activity of Test Compound in Histamine-Induced Scratching Model]
After topical administration of a solution (50 μL) of test compound (0.3 to 3% w/v solution of Compound A in acetone, or 0.03 to 0.3% w/v solution of cipamfylline in acetone), or a vehicle (acetone; 50 μL) onto right dorsal neck of ICR female mice similarly pre-treated as described in Experiment 1, these animals were placed into a testing apparatus (MicroAct). After one hour of the administration of said test compound solution or vehicle, a solution (50 μL) of histamine in saline (300 nmol/50 μL) or saline (50 μL; control group) was intradermally administered to right dorsal neck of each mouse. Immediately after the administration, scratching behavior (counts of scratching) was measured for 30 minutes by the testing apparatus (MicroAct).

[2] = system: spontaneous locomotor activity; experiment: Effect on spontaneous locomotor activity (Experiment 3 (2)); format: in vivo, mouse; details: for Spontaneous locomotor activity (Mean): measured from 1 h after administration
Protocol: (2) [Effect of Test Compound on Spontaneous Locomotor Activity] The same solution (50 μL) of test compound or a vehicle (50 μL) as described in the above-mentioned (1) was administered onto right dorsal neck of ICR female mice similarly pre-treated as described in Experiment 1. After one hour of the administration of the test compound solution or vehicle, these animals were placed into an apparatus for measuring spontaneous locomotor activity (SCANET, Melquest Ltd.), and their locomotor activity was measured for 30 minutes.

[3] = system: histamine-induced scratching behavior; experiment: Antipruritic effect in histamine-induced scratching model (Experiment 2); format: in vivo, mouse; details: for Antipruritic activity (ratio of inhibition rate on scratching behavior to that of Compound A): 3% w/v in acetone 50 μL topical 1 h before histamine 300 nmol/50 μL, ICR female mice, counts for 30 minutes; for antipruritic effect in histamine-induced scratching model, result in words: 3% w/v topical, histamine 300 nmol/50 μL
Protocol: [Antipruritic Effect of Test Compound in Histamine-Induced Scratching Model]
After topical administration of a 3% w/v solution of a test compound or a reference compound as described in the following Table 6 in acetone (50 μL) or a vehicle (acetone; 50 μL) onto right dorsal neck of ICR female mice similarly pre-treated as described in Experiment 1, these animals were placed into a testing apparatus (MicroAct). After one hour of the administration of said compound solution or vehicle, a solution (50 μL) of histamine in saline (300 nmol/50 μL) or saline (50 μL) was intradermally administered to right dorsal neck of each mouse. Immediately after the administration, scratching behavior (counts of scratching) was measured for 30 minutes by MicroAct.
Inhibition rate on scratching behavior of each test compound was evaluated in terms of the following formula based on the counts of scratching in the test group in which each test compound solution was administered followed by administration of a histamine solution in saline (counts of scratching in compound-treated group), and the counts of scratching in the test group in which a vehicle (acetone) was administered followed by administration of a histamine solution in saline (counts of scratching in vehicle-treated group).
(§1) Ratio of inhibition rate on scratching behavior of each test compound to that of Compound A was calculated as antipruritic activity (%). For reference, PDE4 inhibitory activity of each compound (IC50) which was measured by a conventional manner is also shown in such Table.

PDE4 = PDE4 inhibitory activity measured by a conventional manner; format: biochemical
Protocol: as §1

[4] = system: oxazolone-induced inflammatory reactions of right ear auricle; experiment: Chronic oxazolone-induced dermatitis model: ear auricle thickness (Experiment 4); format: in vivo, mouse; details: Compound A 1%, Tacrolimus 0.1%, Dexamethasone 0.01% w/v in 0.25% oxazolone
Protocol: (§2) [Antipruritic Effect of Test Compound in Chronic Oxazolone-Induced Dermatitis Model]
(§3) A magnet for measurement was implanted into an instep part of right hindlimb of BALB/c male mouse (fed for one week from five-week old; Charles River Laboratories, Japan Inc.) under anesthesia, and on the same day, sensitization was carried out by topically administering 0.5% w/v solution (10 μL) of oxazolone in acetone respectively onto the both sides of right ear auricle of the animal (sensitization day). On each point of the 7th, 9th, 11th, 14th and 16th day reckoned from the day after the sensitization (1st day), each mouse was challenged by topical administration of a 10 μL solution of test compound [acetone (vehicle-treated group), 0.25% w/v solution of oxazolone in acetone (oxazolone-treated group), or a test compound solubilized in 0.25% w/v oxazolone solution in acetone (test compound-treated group)] onto the both sides of right ear auricle of the animal to produce inflammatory reactions. Immediately after the administration, scratching behavior (counts of scratching) was measured for two hours by MicroAct. Thickness of right ear auricle of each mouse was measured by a thickness gauge before and 24 hours after the topical administration of each test compound solution. The percentage described in the Table means “% w/v”.

[5] = system: oxazolone-induced scratching behavior; experiment: Chronic oxazolone-induced dermatitis model: scratching behavior (Experiment 4); format: in vivo, mouse; details: Compound A 1%, Tacrolimus 0.1%, Dexamethasone 0.01% w/v in 0.25% oxazolone
Protocol: as §2, §3

[6] = sensitization day, BALB/c male mouse

In the case of `Nc1nc2c([nH]1)c(=O)n(CC1CC1)c(=O)n2CC1CC1` [Cipamfylline, cipamfylline], the “Counts of scratching (Mean)” value ([1]; 0.03% w/v in acetone 50 μL topical 1 h before histamine 300 nmol/50 μL) is reported as 579 beats/30 min, the “Counts of scratching (Mean)” value ([1]; 0.1% w/v in acetone 50 μL topical 1 h before histamine 300 nmol/50 μL) is reported as 369 beats/30 min and the “Counts of scratching (Mean)” value ([1]; 0.3% w/v in acetone 50 μL topical 1 h before histamine 300 nmol/50 μL) is reported as 130 beats/30 min. For the same compound, the “Spontaneous locomotor activity (Mean)” value ([2]; 0.03% w/v in acetone 50 μL topical) was 6760 counts/30 min, the “Spontaneous locomotor activity (Mean)” value ([2]; 0.1% w/v in acetone 50 μL topical) was 5308 counts/30 min and the “Spontaneous locomotor activity (Mean)” value ([2]; 0.3% w/v in acetone 50 μL topical) was 4924 counts/30 min. For the same compound, the “spontaneous locomotor activity lowering effect at a dose producing antipruritic effect, result in words” value ([2]; Compound A 3% w/v, cipamfylline 0.3% w/v) was “showed a significant spontaneous locomotor activity lowering effect”.
With `COc1cc2cc(CO)c(CO)c(-c3ccnc(-n4ncc5ccccc5c4=O)c3)c2cc1OC` [Compound B] the “Antipruritic activity (ratio of inhibition rate on scratching behavior to that of Compound A)” value [3] was 154%, the “antipruritic effect in histamine-induced scratching model, result in words” value [3] was “remarkable antipruritic effect” and the IC50 (PDE4) was 1 nM.
For `COc1cc2cc(CO)c(CO)c(-c3ccnc(-n4c(=O)cc(OC)c5ccccc54)c3)c2cc1OC` [Compound C], the “Antipruritic activity (ratio of inhibition rate on scratching behavior to that of Compound A)” value [3] was 116%, the “antipruritic effect in histamine-induced scratching model, result in words” value [3] was “remarkable antipruritic effect” and the IC50 (PDE4) was 2 nM.
In the case of `COc1cc2cc(CO)c(CO)c(-c3ccnc(-n4c(=O)cc(O)c5ccccc54)c3)c2cc1OC` [Compound D], the “Antipruritic activity (ratio of inhibition rate on scratching behavior to that of Compound A)” value [3] is reported as 80%, the “antipruritic effect in histamine-induced scratching model, result in words” value [3] is reported as “remarkable antipruritic effect” and the IC50 (PDE4) is reported as 2 nM.
`C[C@@H]1C[C@H]2[C@@H]3CCC4=CC(=O)C=C[C@]4(C)[C@@]3(F)[C@@H](O)C[C@]2(C)[C@@]1(O)C(=O)CO` [Dexamethasone] was tested, and the “Ear auricle thickness (Mean)” value ([4]; 7th day) was 0.35 mm, the “Ear auricle thickness (Mean)” value ([4]; 8th day) was 0.46** mm and the “Ear auricle thickness (Mean)” value ([4]; 9th day) was 0.40** mm. The “Ear auricle thickness (Mean)” value ([4]; 10th day) was 0.45** mm, the “Ear auricle thickness (Mean)” value ([4]; 11th day) was 0.43** mm and the “Ear auricle thickness (Mean)” value ([4]; 12th day) was 0.54** mm. For the same compound, the “Ear auricle thickness (Mean)” value ([4]; 14th day) was 0.49** mm, the “Ear auricle thickness (Mean)” value ([4]; 15th day) was 0.55** mm and the “Ear auricle thickness (Mean)” value ([4]; 16th day) was 0.54** mm. The “Ear auricle thickness (Mean)” value ([4]; 17th day) was 0.64** mm, the “Ear auricle thickness (Mean)” value [4, 6] was 0.27 mm and the “Counts of scratching (Mean ± standard error)” value ([5]; 7th day, BALB/c male mouse) was 1663 ± 144 (*) beats/2 hr. The “Counts of scratching (Mean ± standard error)” value ([5]; 9th day) was 1845 ± 442 beats/2 hr, the “Counts of scratching (Mean ± standard error)” value ([5]; 11th day) was 1274 ± 296 beats/2 hr and the “Counts of scratching (Mean ± standard error)” value ([5]; 14th day) was 1791 ± 354 beats/2 hr. For the same compound, the “Counts of scratching (Mean ± standard error)” value ([5]; 16th day) was 2211 ± 430 beats/2 hr.
In the case of `COc1cc2cc(CO)c(CO)c(-c3ccnc(-n4ccc5c(CCc6cccnc6)cccc5c4=O)c3)c2cc1OC` [Reference compound 3], the “Antipruritic activity (ratio of inhibition rate on scratching behavior to that of Compound A)” value [3] is reported as −36%, the “antipruritic effect in histamine-induced scratching model, result in words” value [3] is reported as “very weak or was not observed” and the IC50 (PDE4) is reported as 0.1 nM.
In the case of `C=CC[C@@H]1/C=C(\C)C[C@H](C)C[C@H](OC)[C@H]2O[C@@](O)(C(=O)C(=O)N3CCCC[C@H]3C(=O)O[C@H](/C(C)=C/[C@@H]3CC[C@@H](O)[C@H](OC)C3)[C@H](C)[C@@H](O)CC1=O)[C@H](C)C[C@@H]2OC` [Tacrolimus], the “Ear auricle thickness (Mean)” value ([4]; 7th day) is reported as 0.35 mm, the “Ear auricle thickness (Mean)” value ([4]; 8th day) is reported as 0.58 mm and the “Ear auricle thickness (Mean)” value ([4]; 9th day) is reported as 0.41** mm. For the same compound, the “Ear auricle thickness (Mean)” value ([4]; 10th day) was 0.49** mm, the “Ear auricle thickness (Mean)” value ([4]; 11th day) was 0.49** mm and the “Ear auricle thickness (Mean)” value ([4]; 12th day) was 0.57** mm. The “Ear auricle thickness (Mean)” value ([4]; 14th day) was 0.52** mm, the “Ear auricle thickness (Mean)” value ([4]; 15th day) was 0.73** mm and the “Ear auricle thickness (Mean)” value ([4]; 16th day) was 0.65** mm. For the same compound, the “Ear auricle thickness (Mean)” value ([4]; 17th day) was 0.71** mm, the “Ear auricle thickness (Mean)” value [4, 6] was 0.27 mm and the “Counts of scratching (Mean ± standard error)” value ([5]; 7th day, BALB/c male mouse) was 1130 ± 135 (**) beats/2 hr. For the same compound, the “Counts of scratching (Mean ± standard error)” value ([5]; 9th day) was 1655 ± 231 beats/2 hr, the “Counts of scratching (Mean ± standard error)” value ([5]; 11th day) was 990 ± 148 beats/2 hr and the “Counts of scratching (Mean ± standard error)” value ([5]; 14th day) was 1023 ± 148 (**) beats/2 hr. For the same compound, the “Counts of scratching (Mean ± standard error)” value ([5]; 16th day) was 2164 ± 324 beats/2 hr.
